The supplement of paper PMC10307832

Key:
Assay in all cases: relative viability (nuclei count vs DMSO), 5 days (fraction); higher = more cells survive
Tosedostat + Trametinib = compound: CC(C)C[C@@H](C(=O)N[C@H](C(=O)OC1CCCC1)c1ccccc1)[C@H](O)C(=O)NO [Tosedostat] + CC(=O)Nc1cccc(-n2c(=O)n(C3CC3)c(=O)c3c(Nc4ccc(I)cc4F)n(C)c(=O)c(C)c32)c1 [Trametinib] (partner 0.02 µM)
Summary of the method: (§1)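 Five library-drug doses in √10 steps were combined with a fixed anchor-drug dose, or a single drug was given alone, by pin tool to lung cancer cell lines in 1536-well plates the day after seeding. Nuclei were stained and counted after 5 days. Relative viability is the nuclei count in treated wells over that in vehicle wells, taken as the median of duplicate plates.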

Tosedostat + Phenformin = compound: CC(C)C[C@@H](C(=O)N[C@H](C(=O)OC1CCCC1)c1ccccc1)[C@H](O)C(=O)NO [Tosedostat] + N=C(N)NC(=N)NCCc1ccccc1 [Phenformin] (partner 250 µM)
Summary of the method: as §1

Tosedostat + Alpelisib = compound: CC(C)C[C@@H](C(=O)N[C@H](C(=O)OC1CCCC1)c1ccccc1)[C@H](O)C(=O)NO [Tosedostat] + Cc1nc(NC(=O)N2CCC[C@H]2C(N)=O)sc1-c1ccnc(C(C)(C)C(F)(F)F)c1 [Alpelisib] (partner 2 µM)
Summary of the method: as §1

[1] = compound: CC1=NN=C(O1)C2=NN=C(C=C2)N3CCC(CC3)OC4=C(C=CC(=C4)F)Cl + O=C(CCCCCCC(=O)Nc1ccccc1)NO [Vorinostat] (partner 1 µM)
Summary of the method: as §1

Cell Line	relative viability (Tosedostat + Trametinib; first compound 0.02 µM)	relative viability (Tosedostat + Trametinib; first compound 0.06325 µM)	relative viability (Tosedostat + Trametinib; first compound 0.2 µM)	relative viability (Tosedostat + Trametinib; first compound 0.6325 µM)	relative viability (Tosedostat + Trametinib; first compound 2 µM)	relative viability (Tosedostat + Phenformin; first compound 0.02 µM)	relative viability (Tosedostat + Phenformin; first compound 0.06325 µM)	relative viability (Tosedostat + Phenformin; first compound 0.2 µM)	relative viability (Tosedostat + Phenformin; first compound 0.6325 µM)	relative viability (Tosedostat + Phenformin; first compound 2 µM)	relative viability (Tosedostat + Alpelisib; first compound 0.02 µM)	relative viability (Tosedostat + Alpelisib; first compound 0.06325 µM)	relative viability (Tosedostat + Alpelisib; first compound 0.2 µM)	relative viability (Tosedostat + Alpelisib; first compound 0.6325 µM)	relative viability (Tosedostat + Alpelisib; first compound 2 µM)	relative viability ([1]; first compound 0.253 µM)	relative viability ([1]; first compound 0.8 µM)	relative viability ([1]; first compound 2.53 µM)	relative viability ([1]; first compound 8 µM)
NCI-H2170	0.945	0.971	0.925	0.894	0.915	0.409	0.424	0.381	0.396	0.408	0.742	0.829	0.835	0.777	0.862	0.449	0.366	0.473	0.362
NCI-H2228	0.666	0.57	0.466	0.534	0.421	0.334	0.266	0.291	0.244	0.175	0.971	0.748	0.743	0.677	0.661	0.454	0.586	0.391	0.542
NCI-H2347	0.297	0.295	0.33	0.262	0.321	0.384	0.439	0.55	0.267	0.275	1.14	0.971	1.01	1.02	1.03	0.629	0.597	0.428	0.501
NCI-H2405	0.652	0.657	0.79	0.699	0.614	0.398	0.407	0.397	0.368	0.359	0.78	0.804	0.829	0.787	0.76	0.583	0.556	0.535	0.455
NCI-H3122	0.201	0.258	0.193	0.25	0.183	0.415	0.385	0.362	0.368	0.292	0.861	0.809	0.844	0.774	0.997	0.484	0.484	0.443	0.345
PC-3 [JPC-3]	0.752	0.629	0.733	0.614	0.514	0.468	0.463	0.491	0.442	0.408	1.03	1.03	1.06	0.924	0.727	0.703	0.526	0.797	0.478
PC-14	0.856	0.758	0.781	0.67	0.531	0.653	0.54	0.452	0.448	0.38	0.806	0.903	0.956	0.899	0.786	0.695	0.543	0.714	0.567
RERF-LC-KJ	0.878	0.784	0.81	0.782	0.686	0.406	0.395	0.461	0.364	0.312	0.677	0.955	0.777	0.742	0.57	0.347	0.467	0.453	0.493
SK-LU-1	0.648	0.529	0.597	0.447	0.511	0.598	0.535	0.52	0.428	0.525	1.19	0.981	0.772	0.842	0.491	0.675	0.629	0.662	0.589
SK-MES-1	0.556	0.536	0.625	0.776	0.782	0.696	0.686	0.663	0.568	0.54	0.814	1	0.832	0.802	0.689	0.781	0.765	0.766	0.702
SW 1573	0.59	0.537	0.553	0.472	0.505	0.417	0.364	0.302	0.336	0.342	0.578	0.76	0.641	0.588	0.567	0.717	0.421	0.434	0.251
